Measured values from patent US20150238445A1 (CATHOLIC UNIVERSITY INDUSTRY ACADEMIC COOPERATION FOUNDATION, priority 2012, published 2015).

Tests used:
lupus animal model = assay: Serum lupus-specific dsDNA and IgG by ELISA in the lupus animal model; assay type: in vivo, mouse; details: oral 100 mg/kg every day
Experimental: At this time, the lupus animal model not treated with metformin was used as the control. […] The analysis of the treatment effect was performed as follows. […] Serum was separated from the blood extracted above. The levels of lupus-specific dsDNA (Sigma, cat no. D8515) and IgG (Sigma) in the separated serum were measured by ELISA. Particularly, 96-well plate was coated with dsDNA or anti-mouse IgG, to which the serum separated from the mouse blood was loaded, followed by reaction. Then, […] was added thereto, followed by reaction. Color development was induced by TMB system and the […] was measured.

lupus mouse model = assay: Spleen and liver observation (size, GC follicles, inflammatory cell infiltration) in lupus mouse model; assay type: in vivo
Experimental: The size of those spleen and liver was measured by the naked eye, and the size and the number of GC follicle (Germinal Center follicle) were also observed.
The infiltration of inflammatory cells around the blood vessels of liver tissue was also observed.

pathogenic B cells = assay: FACS and staining of spleen cells for pathogenic B cells, GC and THF in lupus mouse model; assay type: in vivo
Excerpt: Then, spleen cells were separated therefrom and B cell was observed. Particularly, the representative pathogenic B cells, B220−CD138+ long lived plasma B cell and GL7+B220+ germinal center B cell, were observed. For the observation, the spleen cells separated from each group were stained with CD138 and B220 and the […] were stained with GL7 and B220, followed by FACS to examine the expression of each cell.

pathogenic B cell = assay: IgG production by LPS-stimulated B cell; assay type: cell-based, mouse; details: metformin 1 μM, 2 μM, and 5 μM; LPS 1 μg/ml
Experimental: Then, the level of IgG produced by B cell of the mouse was measured by the same manner as described in Example 1.

B cell = B cell differentiation stages after LPS and metformin for 3 days, FACS; assay type: cell-based
Experimental: FACS was performed to observe any changes of the cell in each stage of B cell differentiation.

[1] = test system: regulatory T cell and Th17 cell; assay: Regulatory T cell and Th17 cell activity in lupus animal model; assay type: in vivo; details: vs control group
TFH cell = TFH cell expression in spleen tissue, confocal staining, lupus animal model; assay type: in vivo, mouse; details: intraperitoneal injection 3 times a week; 5 weeks after the administration
Experimental: Particularly, CD4-PerCP, B220-APC, GL-7-FITC, and IOCS-PE fluorescence staining was performed. Then, TFH cells expressing GL-7+ICOS+ in CD4 T cells were examined under fluorescent microscope.

Th17 cell [2] = assay: Th17 differentiation of CD4+ T cells from lupus mouse spleen: FACS, real-time PCR, IL-17 ELISA; assay type: cell-based; details: 3 days
Experimental: Particularly, T cells were separated from the spleen of the lupus mouse model by using CD4+ microbeads. […] Upon completion of the culture, some of the cultured cells were stained with CD4-PerCP and ILo-17 PE, followed by FACS. RNA was separate from the remaining cells, from which Th17 cell related gene was amplified by real-time PCR. The expression of IL-17 in the culture solution was analyzed by ELISA (antigen-antibody examination).

mTOR/STAT3 = mTOR/STAT3 signalling in T cells from lupus animal model spleen, Western blotting and confocal staining; assay type: cell-based
Experimental: Particularly, T cells were separated from the spleen cells of the lupus animal model. […] To analyze signal molecules in the cultured cells, protein was extracted from each condition of the cells. Western blotting was performed with the extracted protein. The protein separated by size was conjugated with each antibody against p-AMPK, AMPK, p-mTOR, mTOR, p-STAT3 705, p-STAST3 727, STAT3, p-STAT5, STAT5, and β-actin. The activity of each molecule was evaluated. Some of the cultured cells were conjugated with p-AMPK, AMPK, p-mTOR, p-STAT3 705, p-STAT3 727, and p-p53 fluorescent antibodies, whose expressions were examined under fluorescent microscope after confocal staining
In addition, nucleus and cytoplasm were separated in order to examine the expression of NrF2 in the nucleus and cytoplasm. Electrophoresis was performed and then Nrf2, tubulin, and β-actin were analyzed by Western blotting.

autophagy = assay: Autophagy molecules and IL-17/Foxp3 in T cells under Th17 differentiation, Western blotting and confocal staining; assay type: cell-based; details: 1 mM metformin, 24 hours
Experimental: Particularly, T cells were separated from the spleen cells of the lupus animal model. […] To analyze signal molecules in the cultured cells, protein was extracted from each condition of the cells. Western blotting was performed with the extracted protein. The protein separated by size was conjugated with each antibody against ATG5, p62, and 3-actin. The activity of each molecule was evaluated. Some of the cultured cells were conjugated with DAPI, IL-17, and Foxp3 fluorescent antibodies, whose expressions were examined under fluorescent microscope after confocal staining.

Th17 cell [3] = assay: Th17 cytokine ELISA and electron microscopy with autophagy activity inhibitor in T cells of lupus mouse model; assay type: cell-based
Experimental: Thus, the present inventors investigated whether or not the activation of autophagy could be directly involved in the suppression of Th17 cell by using an autophagy activity inhibitor. Particularly, T cells were separated from the spleen cells of the lupus mouse model. […] Upon completion of the culture, IL-17, IL-21, and TNF-α cytokines in the culture solution were analyzed by ELISA. Some of those cultured cells were observed under electron microscope to directly observe the activated autophagy therein.

undifferentiated B cell = assay: Differentiation of undifferentiated B cell into regulatory B cell (Breg); assay type: cell-based; details: undifferentiated B cell treated with metformin
Excerpt: As a result, the numbers of both IL-10+ B cell and Foxp3+ B cell were all increased.

[4] = vs lupus group not treated with metformin
[5] = oral 100 mg/kg every day for 3 weeks, spleen cells, FACS, vs control
[6] = staining of spleen cells, vs lupus mouse model not treated
[7] = real-time PCR, Th17 differentiation
[8] = 1 mM metformin with IL-6 or IL-2 (10 ng/ml), 24 hours

Q: Which results are given for `CN(C)C(=N)NC(=N)N` [metformin]?
A: level of IgG in serum (lupus animal model; [4]): significantly reduced; level of lupus-specific dsDNA in serum (lupus animal model; [4]): significantly reduced; level of lupus-specific dsDNA in serum compared with normal mouse group (lupus animal model; vs normal (wild type) mouse group): rather lower than that of the normal mouse group; size and number of GC follicle (lupus mouse model; spleen, vs group not treated with metformin): significantly decreased; size of spleen (lupus mouse model; vs group not treated with metformin): significantly reduced; infiltration of inflammatory cells around the blood vessels of liver tissue (lupus mouse model; vs lupus mouse group not treated with metformin): hardly observe; B220-CD138+ long lived plasma B cell (pathogenic B cells; [5]): significantly reduced; GL7+B220+ germinal center B cell (pathogenic B cells; [5]): significantly reduced; number of follicular B helper T cells (THF) (pathogenic B cells; [6]): also reduced; size of GC (pathogenic B cells; [6]): significantly reduced; IgG production in B cell (pathogenic B cell): reduced by metformin dose-dependently; germinal center B cell (B cell): suppressed by metformin dose-dependently; pre-long lived plasma cell B220+CD138 low cell (B cell): suppressed by metformin dose-dependently; pro/preB cell in the stage of early B cell differentiation (B cell): suppressed by metformin dose-dependently; activity of Th17 [1]: decreased; activity of regulatory T cell [1]: increased; expression of TFH cell expressing ICOS in the spleen tissue (TFH cell): suppressed; expression of IL-17 (Th17 cell [2]; Th17 differentiation condition, metformin 0.1, 1, and 5 mM, FACS and ELISA): regulated by metformin; expression of Foxp3 gene (Th17 cell [2]; [7]): increased; expression of Th-17 related gene Ahr (Th17 cell [2]; [7]): suppression; expression of Th-17 related gene IL-17 (Th17 cell [2]; [7]): suppression; expression of Th-17 related gene IL-21 (Th17 cell [2]; [7]): suppression; expression of Th-17 related gene RUNX1 (Th17 cell [2]; [7]): suppression; expression of Th-17 related gene TNF-α (Th17 cell [2]; [7]): suppression; AMPK activity (mTOR/STAT3; [8]): activated; mTOR/STAT3 activity (mTOR/STAT3; [8]): suppression; expression of NrF2 (mTOR/STAT3; 1 mM metformin, nucleus and cytoplasm, Western blotting): increased; ATG5 (autophagy activating molecule) (autophagy; Western blotting): activate; p62 (autophagy activating molecule) (autophagy; Western blotting): activate; expression of Foxp3 (autophagy; confocal staining): increase; expression of IL-17 (autophagy; confocal staining): suppress; suppressed IL-17 expression when the autophagy inhibitor was co-treated (Th17 cell [3]; 1 mM metformin plus 10 μM bafilomycin or methyladenine, 72 hours, ELISA): increased; expression of IL-17 (Th17 cell [3]; 1 mM metformin, Th17 differentiation, 72 hours, ELISA): suppressed; intracellular activation of autophagy (Th17 cell [3]; electron microscope): directly confirmed; number of Foxp3+ B cell (undifferentiated B cell): increased; number of IL-10+ B cell (undifferentiated B cell): increased
